In ChEMBL document CHEMBL5316328, “Discovery of AXL Degraders with Improved Potencies in Triple-Negative Breast Cancer (TNBC) Cells” (J Med Chem, 2023):
Activity calls are given as the source filed them. The calls are words filed in the database; no cut-off is given here.

Columns and labels:
[1] = test system: MDA-MB-231; assay: Induction of cell cycle arrest in human MDA-MB-231 cells assessed as G0/G1 phase cells at 100 nM incubated for 24 hrs by PI staining based flow cytometric analysis (reference value: 63.32 to 64.94%); type: functional
[2] = test system: MDA-MB-436; assay: Antiproliferative activity against human MDA-MB-436 cells expressing AXL assessed as inhibition of cell growth incubated for 72 hrs by CCK8 assay; type: functional, cell-based; conditions: MDA-MB-436, 72 h
[3] = test system: MDA-MB-231; assay: Induction of cell cycle arrest in human MDA-MB-231 cells assessed as accumulation of cell at G2/M phase at 300 nM incubated for 24 hrs by PI staining based flow cytometric analysis (reference value: 24.34 to 24.44%); type: functional
[4] = test system: MDA-MB-231; assay: Induction of cell cycle arrest in human MDA-MB-231 cells assessed as accumulation of cell at G2/M phase at 33.3 nM incubated for 24 hrs by PI staining based flow cytometric analysis (reference value: 24.34 to 24.44%); type: functional
[5] = molecular target: T1, Protein cereblon/Tyrosine-protein kinase receptor UFO (Homo sapiens, UniProt P30530+Q96SW2); assay: PROTAC activity at CRBN/AXL in human MDA-MB-231 cells assessed as induction of AXL degradation at 40 nM by Western blot analysis; type: cell-based; conditions: time <= 72.0 hrs, TDE = time-dependent effect
Target sequence in this assay (P30530 26-894 limits assumed): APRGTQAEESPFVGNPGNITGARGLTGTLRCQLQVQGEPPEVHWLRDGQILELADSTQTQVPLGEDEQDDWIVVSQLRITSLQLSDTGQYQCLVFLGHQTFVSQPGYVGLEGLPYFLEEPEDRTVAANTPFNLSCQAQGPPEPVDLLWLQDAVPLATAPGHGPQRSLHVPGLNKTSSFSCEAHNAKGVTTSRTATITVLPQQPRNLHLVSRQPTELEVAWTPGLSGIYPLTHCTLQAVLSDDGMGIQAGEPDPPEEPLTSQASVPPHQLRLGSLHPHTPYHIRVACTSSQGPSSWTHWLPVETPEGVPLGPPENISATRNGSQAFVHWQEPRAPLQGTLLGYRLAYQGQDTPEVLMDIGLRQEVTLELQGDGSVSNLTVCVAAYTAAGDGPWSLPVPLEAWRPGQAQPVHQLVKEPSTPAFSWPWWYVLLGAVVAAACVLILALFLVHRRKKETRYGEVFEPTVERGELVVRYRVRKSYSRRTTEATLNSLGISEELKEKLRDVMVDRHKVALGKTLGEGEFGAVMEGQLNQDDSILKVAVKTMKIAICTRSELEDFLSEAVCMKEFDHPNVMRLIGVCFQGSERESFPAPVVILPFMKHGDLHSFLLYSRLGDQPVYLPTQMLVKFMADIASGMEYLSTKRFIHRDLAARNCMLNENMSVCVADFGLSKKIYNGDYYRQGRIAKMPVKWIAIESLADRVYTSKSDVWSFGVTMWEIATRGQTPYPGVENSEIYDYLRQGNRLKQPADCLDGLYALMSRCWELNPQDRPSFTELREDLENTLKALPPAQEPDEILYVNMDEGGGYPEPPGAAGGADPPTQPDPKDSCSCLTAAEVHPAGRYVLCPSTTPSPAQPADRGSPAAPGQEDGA
Target sequence in this assay (Q96SW2 whole entry partner): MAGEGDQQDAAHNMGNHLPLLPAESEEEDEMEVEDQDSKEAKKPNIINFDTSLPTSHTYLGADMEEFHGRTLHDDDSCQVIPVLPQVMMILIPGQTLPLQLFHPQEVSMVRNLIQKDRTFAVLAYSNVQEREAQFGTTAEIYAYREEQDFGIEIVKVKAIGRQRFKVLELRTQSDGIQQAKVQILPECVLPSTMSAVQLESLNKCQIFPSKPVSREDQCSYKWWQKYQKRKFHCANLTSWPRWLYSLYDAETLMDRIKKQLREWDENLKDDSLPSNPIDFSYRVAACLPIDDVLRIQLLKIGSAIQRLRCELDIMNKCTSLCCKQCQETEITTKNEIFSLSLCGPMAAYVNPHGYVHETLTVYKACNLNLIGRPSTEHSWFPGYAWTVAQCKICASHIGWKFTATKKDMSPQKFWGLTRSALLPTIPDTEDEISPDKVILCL

[6] = molecular target: Zinc finger protein Aiolos (Homo sapiens) (UniProt Q9UKT9); assay: Induction of IKZF3 degradation in human MDA-MB-231 cells at 10 uM incubated for 24 hrs by Western blot analysis; type: cell-based
Chain of Zinc finger protein Aiolos (Homo sapiens) (Q9UKT9 whole entry): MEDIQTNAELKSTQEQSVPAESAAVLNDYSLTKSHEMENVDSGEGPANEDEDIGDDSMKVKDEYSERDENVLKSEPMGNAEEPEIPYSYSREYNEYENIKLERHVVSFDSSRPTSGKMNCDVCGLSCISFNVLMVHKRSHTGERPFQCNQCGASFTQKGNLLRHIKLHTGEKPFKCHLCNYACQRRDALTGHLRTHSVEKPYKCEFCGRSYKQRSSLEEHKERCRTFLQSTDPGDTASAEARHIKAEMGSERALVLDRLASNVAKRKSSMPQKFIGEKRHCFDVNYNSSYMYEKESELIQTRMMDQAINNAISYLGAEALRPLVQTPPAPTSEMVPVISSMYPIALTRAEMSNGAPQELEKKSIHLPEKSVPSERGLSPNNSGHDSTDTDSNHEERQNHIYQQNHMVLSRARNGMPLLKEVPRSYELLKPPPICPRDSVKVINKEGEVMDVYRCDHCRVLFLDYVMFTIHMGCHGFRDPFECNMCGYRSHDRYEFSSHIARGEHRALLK

[7] = test system: MDA-MB-231; assay: Induction of apoptosis in human MDA-MB-231 cells assessed as downregulation of caspase-9 expression by Western blot analysis; type: functional, cell-based; conditions: dose 11.1-300 nM
[8] = molecular target: T1, Protein cereblon/Tyrosine-protein kinase receptor UFO; assay: PROTAC activity at CRBN/AXL in human MDA-MB-231 cells assessed as induction of AXL degradation incubated for 24 hrs by immunoblot analysis; type: cell-based
[9] = molecular target: T1, Protein cereblon/Tyrosine-protein kinase receptor UFO; assay: PROTAC activity at CRBN/AXL in human MDA-MB-231 cells assessed as induction of AXL degradation at 40 nM preincubated with MLN-4924 for 2 hrs followed by compound treatment and measured after 24 hrs by Western blot analysis; type: cell-based
Target sequence in this assay (P30530 26-894 limits assumed): as the sequence (P30530 26-894 limits assumed) above
Target sequence in this assay (Q96SW2 whole entry partner): as the sequence (Q96SW2 whole entry partner) above

[10] = Toxicity in Balb/c nude mouse xenografted with human MDA-MB-231 cells assessed as mortality at 10 to 20 mg/kg, ip administered for 22 days and measured 24 hrs post last dose; type: organism-based; conditions: in vivo, 552 h, dose 10-20 mg/kg, time 23 day
[11] = Toxicity in Balb/c nude mouse xenografted with human MDA-MB-231 cells assessed as effect on body weight at 10 to 20 mg/kg, ip administered for 22 days and measured 24 hrs post last dose; type: organism-based; conditions: in vivo, 552 h, dose 10-20 mg/kg, time 23 day
[12] = molecular target: T1, Protein cereblon/Tyrosine-protein kinase receptor UFO; assay: PROTAC activity at CRBN/AXL in human MDA-MB-231 cells assessed as induction of AXL degradation by measuring half-life of AXL incubated upto 20 hrs in the presence of cycloheximide by Western blot analysis; type: cell-based
Target sequence in this assay (P30530 26-894 limits assumed): as the sequence (P30530 26-894 limits assumed) above
Target sequence in this assay (Q96SW2 whole entry partner): as the sequence (Q96SW2 whole entry partner) above

[13] = test system: MDA-MB-231; assay: Antitumor activity against human MDA-MB-231 cells xenografted in Balb/c nude mouse assessed as tumor growth inhibition at 20 mg/kg, ip administered for 22 days and measured 24 hrs post last dose relative to control; type: functional; conditions: MDA-MB-231, 552 h, time 23 day, read-out: TGI
[14] = molecular target: T1, Protein cereblon/Tyrosine-protein kinase receptor UFO; assay: PROTAC activity at CRBN/AXL in human MDA-MB-231 cells expressing AXL assessed as induction of AXL degradation at 0.016 to 10 nM incubated for 24 hrs by Western blot analysis; type: cell-based; conditions: dose 0.016-10 nM
Target sequence in this assay (P30530 26-894 limits assumed): as the sequence (P30530 26-894 limits assumed) above
Target sequence in this assay (Q96SW2 whole entry partner): as the sequence (Q96SW2 whole entry partner) above

[15] = molecular target: T1, Protein cereblon/Tyrosine-protein kinase receptor UFO; assay: PROTAC activity at CRBN/AXL in human MDA-MB-231 cells assessed as induction of AXL degradation incubated upto 20 hrs in the presence of cycloheximide by Western blot analysis; type: cell-based
Target sequence in this assay (P30530 26-894 limits assumed): as the sequence (P30530 26-894 limits assumed) above
Target sequence in this assay (Q96SW2 whole entry partner): as the sequence (Q96SW2 whole entry partner) above

[16] = test system: MDA-MB-453; assay: Antiproliferative activity against human MDA-MB-453 cells assessed as inhibition of cell growth incubated for 72 hrs by CCK8 assay; type: functional, cell-based; conditions: MDA-MB-453, 72 h
[17] = test system: MDA-MB-231; assay: Induction of apoptosis in human MDA-MB-231 cells assessed as viable cells at 300 nM incubated for 48 hrs by Annexin V-PE staining based flow cytometric analysis (reference value: 92.59 to 92.71%); type: functional; conditions: read-out: Activity
[18] = test system: MDA-MB-231; assay: Induction of cell cycle arrest in human MDA-MB-231 cells assessed as G0/G1 phase cells at 300 nM incubated for 24 hrs by PI staining based flow cytometric analysis (reference value: 63.32 to 64.94%); type: functional
[19] = Antitumor activity against patient-derived breast cancer organoid assessed as reduction in cell viability incubated for 120 hrs by CellTiter-Glo 3D assay; type: functional, tissue-based; conditions: Homo sapiens
[20] = test system: MDA-MB-231; assay: Induction of apoptosis in human MDA-MB-231 cells assessed as necrotic cells at 300 nM incubated for 48 hrs by Annexin V-PE staining based flow cytometric analysis (reference value: 2.64 to 3.23%); type: functional
[21] = species: Homo sapiens; assay: Antitumor activity against patient-derived breast cancer organoid assessed as decrease in organoid size at 5 uM incubated for 120 hrs by bright-field imaging microscopic analysis; type: functional, tissue-based
[22] = molecular target: Casein kinase I isoform alpha (Homo sapiens) (UniProt P48729); assay: Induction of CK1alpha degradation in human MDA-MB-231 cells at 10 uM incubated for 24 hrs by Western blot analysis; type: cell-based
Chain of Casein kinase I isoform alpha (Homo sapiens) (P48729 2-337 limits assumed): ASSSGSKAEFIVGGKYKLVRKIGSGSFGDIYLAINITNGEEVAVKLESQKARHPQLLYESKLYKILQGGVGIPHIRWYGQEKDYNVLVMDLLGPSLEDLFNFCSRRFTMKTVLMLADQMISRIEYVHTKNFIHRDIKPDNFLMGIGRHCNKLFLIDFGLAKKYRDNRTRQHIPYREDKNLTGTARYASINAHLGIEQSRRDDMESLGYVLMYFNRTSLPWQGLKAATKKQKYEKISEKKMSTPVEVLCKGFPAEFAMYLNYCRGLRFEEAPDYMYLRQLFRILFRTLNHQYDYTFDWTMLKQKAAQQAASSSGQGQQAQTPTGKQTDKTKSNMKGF

[23] = test system: MDA-MB-231; assay: Induction of cell cycle arrest in human MDA-MB-231 cells assessed as decrease in CDK2 level at 11.1 to 300 nM by Western blot analysis; type: functional, cell-based; conditions: dose 11.1-300 nM
[24] = molecular target: Serine/threonine-protein kinase AKT (Homo sapiens) (UniProt P31751+Q9Y243+P31749); assay: Inhibition of AKT phosphorylation in human MDA-MB-231 incubated for 18 hrs by Western blot analysis; type: cell-based; conditions: dose 1.2-100 nM
Chain of Serine/threonine-protein kinase AKT (Homo sapiens) (P31749 whole entry, looked up): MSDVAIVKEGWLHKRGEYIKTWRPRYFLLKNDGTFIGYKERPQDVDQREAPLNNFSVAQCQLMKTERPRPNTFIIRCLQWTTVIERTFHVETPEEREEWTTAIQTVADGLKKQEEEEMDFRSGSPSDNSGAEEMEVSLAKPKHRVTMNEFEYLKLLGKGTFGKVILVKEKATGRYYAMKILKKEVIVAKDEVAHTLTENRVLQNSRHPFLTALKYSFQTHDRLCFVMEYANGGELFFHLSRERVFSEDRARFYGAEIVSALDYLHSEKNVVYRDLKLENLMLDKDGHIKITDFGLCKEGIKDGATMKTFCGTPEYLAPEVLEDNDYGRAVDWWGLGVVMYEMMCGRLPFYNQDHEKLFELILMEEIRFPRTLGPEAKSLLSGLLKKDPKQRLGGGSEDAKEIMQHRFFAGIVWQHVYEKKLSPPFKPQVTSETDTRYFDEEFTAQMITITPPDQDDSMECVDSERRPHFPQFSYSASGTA
Chain of Serine/threonine-protein kinase AKT (Homo sapiens) (P31751 whole entry, looked up): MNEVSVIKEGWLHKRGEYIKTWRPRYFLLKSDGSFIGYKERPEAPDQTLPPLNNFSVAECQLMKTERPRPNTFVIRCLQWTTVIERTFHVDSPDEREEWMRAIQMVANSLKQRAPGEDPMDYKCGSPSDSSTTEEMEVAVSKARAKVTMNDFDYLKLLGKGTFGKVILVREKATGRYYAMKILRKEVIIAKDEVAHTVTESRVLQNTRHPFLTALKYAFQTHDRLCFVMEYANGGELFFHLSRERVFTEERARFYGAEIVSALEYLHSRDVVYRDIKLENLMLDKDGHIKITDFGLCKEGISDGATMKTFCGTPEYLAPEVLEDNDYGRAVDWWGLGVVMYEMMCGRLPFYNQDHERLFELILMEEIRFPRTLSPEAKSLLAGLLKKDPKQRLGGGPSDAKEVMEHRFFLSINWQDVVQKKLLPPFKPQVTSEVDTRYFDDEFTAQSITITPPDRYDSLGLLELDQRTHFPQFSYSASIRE
Chain of Serine/threonine-protein kinase AKT (Homo sapiens) (Q9Y243 whole entry, looked up): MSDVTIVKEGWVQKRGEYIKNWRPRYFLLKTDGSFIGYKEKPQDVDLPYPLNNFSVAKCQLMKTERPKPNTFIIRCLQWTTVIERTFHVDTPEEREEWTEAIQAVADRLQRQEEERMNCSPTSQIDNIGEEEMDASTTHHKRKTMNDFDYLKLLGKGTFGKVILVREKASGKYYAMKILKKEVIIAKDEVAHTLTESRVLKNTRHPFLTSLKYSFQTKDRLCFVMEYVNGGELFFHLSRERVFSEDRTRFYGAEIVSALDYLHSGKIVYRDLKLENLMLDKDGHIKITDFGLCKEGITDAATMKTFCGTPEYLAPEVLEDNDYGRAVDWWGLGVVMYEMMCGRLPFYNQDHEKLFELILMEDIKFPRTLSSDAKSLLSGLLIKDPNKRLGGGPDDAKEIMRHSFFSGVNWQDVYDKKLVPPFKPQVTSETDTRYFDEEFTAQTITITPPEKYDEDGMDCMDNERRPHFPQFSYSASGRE

[25] = test system: MDA-MB-231; assay: Induction of apoptosis in human MDA-MB-231 cells assessed as early apoptotic cells at 33.3 nM incubated for 48 hrs by Annexin V-PE staining based flow cytometric analysis (reference value: 3.95 to 3.74%); type: functional
[26] = test system: MDA-MB-231; assay: Induction of cell cycle arrest in human MDA-MB-231 cells assessed as accumulation of cell at G2/M phase at 100 nM incubated for 24 hrs by PI staining based flow cytometric analysis (reference value: 24.34 to 24.44%); type: functional
[27] = test system: MDA-MB-231; assay: Induction of cell cycle arrest in human MDA-MB-231 cells assessed as G0/G1 phase cells at 33.3 nM incubated for 24 hrs by PI staining based flow cytometric analysis (reference value: 63.32 to 64.94%); type: functional
[28] = test system: MDA-MB-231; assay: Induction of cell cycle arrest in human MDA-MB-231 cells assessed as S phase cells at 33.3 nM incubated for 24 hrs by PI staining based flow cytometric analysis (reference value: 9.64 to 10.79%); type: functional
[29] = molecular target: T1, Protein cereblon/Tyrosine-protein kinase receptor UFO; assay: PROTAC activity at CRBN/AXL in human MDA-MB-231 cells assessed as induction of AXL degradation at 10 nM preincubated with more than 5 uM of N-(4-((6,7-dimethoxyquinazolin-4-yl)oxy)-3-fluorophenyl)-6-ethyl-1,2-dimethyl-4-oxo-1,4-dihydroquinoline-3-carboxamide for 6 hrs followed by compound treatment and measured after 24 hrs by Western blot analysis; type: cell-based
Target sequence in this assay (P30530 26-894 limits assumed): as the sequence (P30530 26-894 limits assumed) above
Target sequence in this assay (Q96SW2 whole entry partner): as the sequence (Q96SW2 whole entry partner) above

[30] = test system: MDA-MB-231; assay: Induction of apoptosis in human MDA-MB-231 cells assessed as upregulation of cleaved PARP expression by Western blot analysis; type: functional, cell-based; conditions: dose 11.1-300 nM

With `CCc1ccc2c(c1)c(=O)c(C(=O)Nc1ccc(Oc3ncnc4cc(OCCCCCC(=O)Nc5ccc6c(c5)CN(C5CCC(=O)NC5=O)C6=O)c(OC)cc34)c(F)c1)c(C)n2C` (stereo unspecified) the Activity [1] was 46.81%, the IC50 [2] was 5 nM and the Activity [3] was 29.55%. The Activity [4] was 22.85%, the Activity [5] was “Tde” and the Activity [6] was “inactive”. For the same molecule, the Activity [7] was “Dose-Dependent Effect”, the Activity [8] was “Dose-Dependent Effect” and the EC50 [8] was 5 nM. For the same molecule, the Activity [9] was “inactive”, the Activity [10] was “Non-Toxic” and the Activity [11] was “Non-Toxic”. For the same molecule, the T1/2 [12] was 8 h, the inhibition in vivo at 20 mg/kg [13] was 62.5% and the Activity [14] was “Active”. The Activity [15] was “Active”, the IC50 [16] was over 5000 nM and the viability at 0.3 µM [17] was 74.1%. It also gave an Activity [18] of 47.51%, an IC50 [19] of 20 nM and an Activity [20] of 4.59%. For the same molecule, the Activity [21] was “Active”, the Activity [22] was “inactive” and the Activity [23] was “Active”. The inhibition [24] was “Dose-Dependent Effect”, the Activity [25] was 6.69% and the Activity [26] was 31.16%. For the same molecule, the Activity [27] was 63.32%, the Activity [28] was 14.52% and the Activity [29] was “inactive”. The Activity [30] was “Dose-Dependent Effect”.
